Earlier results on one molecule are cited in PMC7444767 (British Journal of Clinical Pharmacology, 2020).

The data set relates to EGFR kinases. The conditions noted are these: cited from earlier work.

Consider `C=CC(=O)N1CCC[C@@H](n2nc(-c3ccc(Oc4ccccc4)cc3)c3c(N)ncnc32)C1` [ibrutinib, reference compound], for which the “Inhibition of the EGFR family of kinases” value is recorded as “potent irreversible inhibitor”.
